Results on 9 compounds are retold here after US9464084B2, “P2X7 modulators” (Janssen Pharmaceutica NV, priority 2013, dated 2016).

As a reminder, the Ki is the dissociation constant of the complex between target and ligand, obtained from inhibition or displacement. In general, IC50 refers to the point on the concentration scale where inhibition reaches its midpoint.

In experiment [1] the target is T1, P2X7 (Homo sapiens (Human), UniProt Q99572). Description: Radioligand binding, tritiated A-804598, human P2X7-1321N1 cell membranes.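 Note: ki obtained from the binding IC50 after correction for tracer concentration and tracer affinity.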 The following applies: 1 hour at 4° C.
Procedure: On the day of the experiment, cell membrane preparations were made according to standard published methods. […] The assay was terminated by filtration (GF/B filters pre-soaked with 0.3% PEI) and washed with washing buffer (Tris-HCl 50 mM). The IC50 generated in the binding assay was corrected for tracer concentration and affinity of the tracer to derive at the affinity (Ki) of the test compounds.
Experiment [2] addresses T1, P2X7. Put plainly: P2X7 antagonism in human PBMCs (LPS + Bz-ATP induced IL-1β release, ELISA).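 For all read-outs here: PBMCs from donor human blood, with a further 1.5 h incubation of the cells in the assay.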 Format: cell-based. The following applies: LPS 30 ng/ml, Bz-ATP 0.5 mM; for PBMC 10 μM (% control): compound 10 μM; for PBMC 1 μM (% control): compound 1 μM.
The next experiment addresses rat P2X7 (Rattus norvegicus (Rat), UniProt Q64663). Put plainly: Ca2+ flux (FLIPR) in 1321N1 cells expressing recombinant rat P2X7 channel.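 Note: Calcium-4 dye fluorescence change read 180 s after agonist addition, following 30 min cell preincubation with test compound.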 It is filed as cell-based. The following applies: 250 μM BzATP. In general terms: Calcium flux is commonly read through the fluorescence of an indicator in the cells.
In experiment [3] the target is T1, P2X7. Put plainly: Ca2+ flux (FLIPR) in 1321N1 cells expressing recombinant human P2X7 channel.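 Note: Calcium-4 dye-loaded cells exposed to compound for 30 min before agonist addition, fluorescence change read 180 s after agonist.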 The following applies: 250 μM BzATP. It is filed as cell-based.

rat P2X7, sequence (Q64663 whole entry): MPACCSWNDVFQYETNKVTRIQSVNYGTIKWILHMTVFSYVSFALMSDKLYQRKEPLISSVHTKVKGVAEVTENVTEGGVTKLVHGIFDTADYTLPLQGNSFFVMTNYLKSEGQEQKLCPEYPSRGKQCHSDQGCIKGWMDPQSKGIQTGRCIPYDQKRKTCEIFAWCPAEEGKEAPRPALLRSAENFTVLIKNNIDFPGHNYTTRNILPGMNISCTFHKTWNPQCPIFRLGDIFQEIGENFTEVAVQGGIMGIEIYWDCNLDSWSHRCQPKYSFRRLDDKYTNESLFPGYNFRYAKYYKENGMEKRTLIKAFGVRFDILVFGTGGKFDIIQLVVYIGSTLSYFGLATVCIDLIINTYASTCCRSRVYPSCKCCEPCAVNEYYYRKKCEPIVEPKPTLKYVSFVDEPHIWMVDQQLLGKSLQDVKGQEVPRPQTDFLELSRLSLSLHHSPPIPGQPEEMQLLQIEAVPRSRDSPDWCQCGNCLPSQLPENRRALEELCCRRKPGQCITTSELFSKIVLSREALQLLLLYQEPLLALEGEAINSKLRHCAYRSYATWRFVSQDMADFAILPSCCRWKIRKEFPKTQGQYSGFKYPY
T1 sequence (Q99572 whole entry): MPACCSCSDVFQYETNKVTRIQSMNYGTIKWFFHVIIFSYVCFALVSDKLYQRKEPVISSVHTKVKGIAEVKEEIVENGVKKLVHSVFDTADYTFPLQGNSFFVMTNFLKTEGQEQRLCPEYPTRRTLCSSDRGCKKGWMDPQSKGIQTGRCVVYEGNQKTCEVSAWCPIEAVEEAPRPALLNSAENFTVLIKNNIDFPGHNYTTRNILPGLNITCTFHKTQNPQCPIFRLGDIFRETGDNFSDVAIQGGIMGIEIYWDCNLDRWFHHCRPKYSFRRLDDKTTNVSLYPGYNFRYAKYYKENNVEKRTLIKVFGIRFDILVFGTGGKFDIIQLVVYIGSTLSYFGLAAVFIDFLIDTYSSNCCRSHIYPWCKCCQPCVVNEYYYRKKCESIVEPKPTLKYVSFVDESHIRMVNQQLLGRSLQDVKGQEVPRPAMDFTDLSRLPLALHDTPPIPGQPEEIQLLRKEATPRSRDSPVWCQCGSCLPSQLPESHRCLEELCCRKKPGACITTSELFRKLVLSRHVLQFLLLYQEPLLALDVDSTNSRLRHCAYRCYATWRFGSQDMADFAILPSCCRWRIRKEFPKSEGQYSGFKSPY

At P2X7 [1], `C[C@H]1Cc2c(nnn2-c2ncc(F)cn2)CN1C(=O)c1ccc(Cl)c(F)c1Cl` (single isomer, unassigned) [Example 218, (6S*)-5-[(2,4-Dichloro-3-fluorophenyl)carbonyl]-1-(5-fluoropyrimidin-2-yl)-6-methyl-4,5,6,7-tetrahydro-1H-[1,2,3]triazolo[4,5-c]pyridine] displayed an inhibition constant Ki of 2.5 nM. At P2X7 [2], the “PBMC 10 μM (% control)” value stood at 6.1 % control.
`C[C@@H]1Cc2c(nnn2-c2ncccn2)CN1C(=O)c1cccc(C(F)(F)F)c1Cl` (single isomer, unassigned) [Example 221, (6R*)-5-{[2-Chloro-3-(trifluoromethyl)phenyl]carbonyl}-6-methyl-1-pyrimidin-2-yl-4,5,6,7-tetrahydro-1H-[1,2,3]triazolo[4,5-c]pyridine]: the IC50 on rat P2X7 was 6680 nM; on P2X7 [3] it was 506 nM. Also, on P2X7 [2], the “PBMC 10 μM (% control)” value was found to be 17.8 % control.
In the case of `O=C(c1cccc(Cl)c1Cl)N1CCc2c(-c3ccc(F)cc3)n[nH]c2C1` [Example 114, 6-[(2,3-Dichlorophenyl)carbonyl]-3-(4-fluorophenyl)-4,5,6,7-tetrahydro-2H-pyrazolo[3,4-c]pyridine], the IC50 was 1260 nM on rat P2X7 and 63.1 nM on P2X7 [3]. For the same compound, the “PBMC 1 μM (% control)” value on P2X7 [2] is on record as 20.4 % control.
Take `O=C(c1cccc(Cl)c1Cl)N1CCc2c(n[nH]c2-c2cncnc2)C1` [Example 330, (2,3-dichlorophenyl)(3-(pyrimidin-5-yl)-4,5-dihydro-2H-pyrazolo[3,4-c]pyridin-6(7H)-yl)methanone]: the IC50 at rat P2X7 and on P2X7 [3] was above 10000 nM in each case. Besides, the “PBMC 10 μM (% control)” value on P2X7 [2] is listed as 33.8 % control.
Take `CC1c2nn(COCC[Si](C)(C)C)c(-c3ncc(F)cn3)c2CCN1C(=O)c1cccc(C(F)(F)F)c1Cl` (stereo not shown) [Example 303, (2-chloro-3-(trifluoromethyl)phenyl)(3-(5-fluoropyrimidin-2-yl)-7-methyl-2-((2-(trimethylsilyl)ethoxy)methyl)-4,5-dihydro-2H-pyrazolo[3,4-c]pyridin-6(7H)-yl)methanone]: the 50% inhibitory concentration (IC50) on rat P2X7 came out at 5190 nM; at P2X7 [3], 6920 nM. The “PBMC 10 μM (% control)” value at P2X7 [2] is listed as −1.6 % control.
`Cc1c(C(=O)N2Cc3nnn(-c4cc[nH]n4)c3CC2C)cccc1C(F)(F)F` (stereo not shown) [Example 154, (6-methyl-1-(1H-pyrazol-3-yl)-6,7-dihydro-1H-[1,2,3]triazolo[4,5-c]pyridin-5(4H)-yl)(2-methyl-3-(trifluoromethyl)phenyl)methanone]: the values for the IC50 on rat P2X7 and at P2X7 [3] were 10.2 nM and 16.5 nM, respectively. The “PBMC 10 μM (% control)” value at P2X7 [2] is given as −0.6 % control.
With `Cn1nc(-c2ccc(F)cc2)c2c1CN(C(=O)c1cccc(C(F)(F)F)c1Cl)CC2` [Example 106, 6-{[2-Chloro-3-(trifluoromethyl)phenyl]carbonyl}-3-(4-fluorophenyl)-1-methyl-4,5,6,7-tetrahydro-1H-pyrazolo[3,4-c]pyridine], the IC50 came to 1580 nM on rat P2X7 and 158 nM on P2X7 [3]. Also, at P2X7 [2], the “PBMC 1 μM (% control)” value came to 64.4 % control.
The compound `CC1Cc2c(nnn2-c2ncc(F)cn2)CN1C(=O)c1ccc(Cl)c(F)c1Cl` (stereo not shown) [Example 216, 5-[(2,4-Dichloro-3-fluorophenyl)carbonyl]-1-(5-fluoropyrimidin-2-yl)-6-methyl-4,5,6,7-tetrahydro-1H-[1,2,3]triazolo[4,5-c]pyridine] had a Ki on P2X7 [1] of 12.6 nM. For the same compound, the “PBMC 10 μM (% control)” value on P2X7 [2] stood at 0.6 % control.
In the case of `CCc1cccnc1-n1nnc2c1CCN(C(=O)c1cccc(C(F)(F)F)c1)C2C` (stereo not shown) [Example 295, (1-(3-ethylpyridin-2-yl)-4-methyl-6,7-dihydro-1H-[1,2,3]triazolo[4,5-c]pyridin-5(4H)-yl)(3-(trifluoromethyl)phenyl)methanone], the IC50 on rat P2X7 and on P2X7 [3] was above 10000 nM in each case. Further, the “PBMC 10 μM (% control)” value on P2X7 [2] came out at 10.1 % control.
